Results as given in paper PMC4552634, “A New Set of Chemical Starting Points with Plasmodium falciparum Transmission-Blocking Potential for Antimalarial Drug Discovery” (PLoS ONE, 2015).
Like-named read-outs stand apart in the source and are kept apart here.

Key:
[1] = system: luciferase reaction (BacTiter-Glo); assay: Interference assay (inhibition of the BacTiter-Glo luciferase reaction); format: biochemical; set-up: concentration or dose not given beside the values; conditions: ATP interference assay
Protocol: To discard possible false-positive results, we performed an interference assay in parallel. […] […]. The ATP solution was made by dissolving ATP powder (ATP standard from the ATPlite 1 step assay kit, reference 6016731, Perkin Elmer) in culture medium. The positive control used was the Luciferase Inhibitor I Calbiochem (Merck, 119113) at 100 μM.

[2] = system: HepG2 cells; assay: Cytotoxicity in HepG2 cells (intracellular ATP, ATPlite, 48 h); format: cell-based, human; conditions: IC50 HepG2 divided by IC50 P. falciparum gametocytes
[3] = as above; format: cell-based, human; conditions: human, HepG2 cells; IC50 per ratio column head; unit inferred; read-out: Cytotoxicity in HepG2
[4] = system: P. falciparum stage V gametocytes; assay: Gametocytocidal ATP bioluminescence assay (single point 5 μM and 1 μM, dose-response); format: cell-based, Plasmodium falciparum; conditions: for IC50: Plasmodium falciparum
Protocol: Purified stage IV-V gametocytes were obtained as previously described [10]. Single point ATP bioluminescence assay and dose–response of positive hits was determined in accordance with the previously published protocol [10].

[5] = system: P. falciparum asexual stages; conditions: TCAMS data, cited from earlier work
[6] = system: adenosine A3 receptor; set-up: method as in TCAMS annotation; conditions: target annotation in TCAMS; ref TCAMS annotation; cited from earlier work

O=C(Nc1nc(-c2ccccn2)cc2ccccc12)c1cccc(Cl)c1 [TCMDC-123886]
% Control luminiscence [1]: 100%
Ratio IC50 HepG2/IC50 P. falciparum [2]: >50
IC50 at 48 h [3]: > 25000 nM
Ratio IC50 HepG2/IC50 P. falciparum ([4]; IC50 HepG2 divided by IC50 P. falciparum gametocytes): >50
IC50 ([4]; P. falciparum gametocytes, average, read-out: IC50 Pf Gametocytes average, IC50 (µM) average): 0.5 µM
IC50 ([4]; sexual stages (gametocytes), dose-response, read-out: IC50 sexual): 0.497 µM
IC50 ([5]; P. falciparum asexual stages, read-out: IC50 (µM) Pf asexual stages): 0.75 µM
IC50 ([5]; asexual stages, read-out: IC50 asexual): 0.754 µM
reported as an adenosine A3 receptor ligand [6]: ligand
